# Assay results reported in US20250346574A1, “PYRIDINYL SUBSTITUTED OXOISOINDOLINE COMPOUNDS FOR THE TREATMENT OF CANCER” (Bristol-Myers Squibb Company, priority 2021, published 2025).
# Biological target: Helios (Homo sapiens, UniProt Q96SW2+Q9UKS7)
# Assay: Helios Human T Regulatory Cells Degradation Assay
# Type: cell-based
# Design: fluorescently labelled antibodies against Helios in 1× Permeabilization buffer; endogenous in cells; host or cells: cryopreserved human T regulatory cells
# Details: cryopreserved human T regulatory cells, incubated 20 hours, Helios-APC antibody staining, flow cytometry; read-out: hTreg Helios DC50
# In short: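 Cryopreserved human Treg cells thawed in RPMI+10% FBS+20 ng/mL IL-2, rested 3 h, then incubated with compound 20 hours at 37° C, 5% CO2. Near-IR viability stain, permeabilization, flow cytometry read-out.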
# Sequence of Helios (Q9UKS7 whole entry): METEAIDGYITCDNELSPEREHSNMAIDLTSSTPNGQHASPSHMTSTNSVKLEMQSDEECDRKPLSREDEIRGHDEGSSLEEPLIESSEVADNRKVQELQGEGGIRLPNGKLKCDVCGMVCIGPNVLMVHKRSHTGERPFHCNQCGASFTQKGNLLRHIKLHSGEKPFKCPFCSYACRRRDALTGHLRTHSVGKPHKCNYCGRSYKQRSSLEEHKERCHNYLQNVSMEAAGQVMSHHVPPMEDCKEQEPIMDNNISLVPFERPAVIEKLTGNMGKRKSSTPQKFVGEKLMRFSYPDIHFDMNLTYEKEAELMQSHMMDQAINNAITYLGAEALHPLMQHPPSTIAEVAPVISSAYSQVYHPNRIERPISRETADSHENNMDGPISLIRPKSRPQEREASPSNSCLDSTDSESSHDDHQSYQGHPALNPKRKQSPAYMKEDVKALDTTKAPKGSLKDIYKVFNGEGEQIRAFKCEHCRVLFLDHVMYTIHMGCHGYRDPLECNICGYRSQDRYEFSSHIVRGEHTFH
# Sequence of Helios (Q96SW2 whole entry): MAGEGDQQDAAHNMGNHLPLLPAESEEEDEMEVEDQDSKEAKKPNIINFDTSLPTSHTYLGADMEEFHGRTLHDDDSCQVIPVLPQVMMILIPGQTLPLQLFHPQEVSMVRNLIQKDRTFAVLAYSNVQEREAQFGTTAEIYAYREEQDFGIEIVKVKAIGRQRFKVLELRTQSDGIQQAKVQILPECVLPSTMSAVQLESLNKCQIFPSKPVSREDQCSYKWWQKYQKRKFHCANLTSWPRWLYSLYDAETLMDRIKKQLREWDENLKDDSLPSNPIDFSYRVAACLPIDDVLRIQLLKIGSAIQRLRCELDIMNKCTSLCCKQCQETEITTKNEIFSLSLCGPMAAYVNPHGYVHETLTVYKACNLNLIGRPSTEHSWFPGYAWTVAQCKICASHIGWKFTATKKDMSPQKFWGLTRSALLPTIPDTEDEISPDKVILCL
# Sequence of Helios (Q16531 whole entry partner): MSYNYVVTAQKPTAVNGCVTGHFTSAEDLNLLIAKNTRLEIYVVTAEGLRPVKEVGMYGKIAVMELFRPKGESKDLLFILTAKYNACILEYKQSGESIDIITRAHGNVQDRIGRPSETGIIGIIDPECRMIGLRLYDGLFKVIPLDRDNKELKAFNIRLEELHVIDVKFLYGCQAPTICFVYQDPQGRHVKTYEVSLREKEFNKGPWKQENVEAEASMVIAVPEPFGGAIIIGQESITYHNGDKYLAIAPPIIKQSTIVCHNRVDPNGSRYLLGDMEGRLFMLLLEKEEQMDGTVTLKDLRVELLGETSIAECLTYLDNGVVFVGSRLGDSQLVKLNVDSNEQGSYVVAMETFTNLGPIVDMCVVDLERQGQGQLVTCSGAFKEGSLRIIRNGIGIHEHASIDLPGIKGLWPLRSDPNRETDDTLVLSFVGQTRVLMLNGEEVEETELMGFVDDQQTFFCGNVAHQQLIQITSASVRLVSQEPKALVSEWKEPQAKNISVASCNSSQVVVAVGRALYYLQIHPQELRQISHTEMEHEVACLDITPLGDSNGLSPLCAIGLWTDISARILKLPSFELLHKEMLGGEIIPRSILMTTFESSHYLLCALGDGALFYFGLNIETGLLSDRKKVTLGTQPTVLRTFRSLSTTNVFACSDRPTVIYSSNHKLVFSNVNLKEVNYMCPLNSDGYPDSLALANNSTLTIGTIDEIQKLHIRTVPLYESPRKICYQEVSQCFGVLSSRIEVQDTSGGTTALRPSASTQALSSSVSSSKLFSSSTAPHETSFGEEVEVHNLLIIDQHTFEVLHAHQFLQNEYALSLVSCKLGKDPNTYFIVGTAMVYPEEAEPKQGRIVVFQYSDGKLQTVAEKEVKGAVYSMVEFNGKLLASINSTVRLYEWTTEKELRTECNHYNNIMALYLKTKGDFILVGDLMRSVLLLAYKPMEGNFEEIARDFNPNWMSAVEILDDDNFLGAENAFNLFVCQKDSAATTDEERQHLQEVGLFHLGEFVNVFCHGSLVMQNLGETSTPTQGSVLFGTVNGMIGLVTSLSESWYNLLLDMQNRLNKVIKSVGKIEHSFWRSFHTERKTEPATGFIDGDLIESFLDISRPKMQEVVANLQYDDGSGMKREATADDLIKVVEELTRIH
row,Structure (SMILES),DC50 [nM]
1,"O=C1CCC(N2Cc3cc(-c4cc(CN5CC(CNC(=O)c6ccccc6)C5)ccn4)ccc3C2=O)C(=O)N1 (stereo not drawn) [Example 159, N-((1-((2-(2-(2,6-dioxopiperidin-3-yl)-1-oxoisoindolin-5-yl)pyridin-4-yl)methyl)azetidin-3-yl)methyl)benzamide]",14.6
2,"CC(=O)N1CC2CCCN(Cc3ccnc(-c4ccc5c(c4)CN(C4CCC(=O)NC4=O)C5=O)c3F)C2C1 (stereo not drawn) [Example 274, 3-(5-(4-((6-acetyloctahydro-1H-pyrrolo[3,4-b]pyridin-1-yl)methyl)-3-fluoropyridin-2-yl)-1-oxoisoindolin-2-yl)piperidine-2,6-dione]",≥ 10000
3,"O=C1CCC(N2Cc3cc(-c4cc(CN5CCC[C@H]5C(=O)NC5CCCCC5)ccn4)ccc3C2=O)C(=O)N1 (stereo partly drawn) [Example 190, (2S)—N-cyclohexyl-1-((2-(2-(2,6-dioxopiperidin-3-yl)-1-oxoisoindolin-5-yl)pyridin-4-yl)methyl)pyrrolidine-2-carboxamide]",49.7
4,"O=C1CCC(N2Cc3cc(-c4nccc(CN5CCC(O)(Cc6ccccc6)CC5)c4F)ccc3C2=O)C(=O)N1 (stereo not drawn) [Example 235, 3-(5-(4-((4-benzyl-4-hydroxypiperidin-1-yl)methyl)-3-fluoropyridin-2-yl)-1-oxoisoindolin-2-yl)piperidine-2,6-dione]",330
5,"CC(C)OCC1CCN1Cc1ccnc(-c2ccc3c(c2)CN(C2CCC(=O)NC2=O)C3=O)c1 (stereo not drawn) [Example 196, 3-(5-(4-((2-(isopropoxymethyl)azetidin-1-yl)methyl)pyridin-2-yl)-1-oxoisoindolin-2-yl)piperidine-2,6-dione]",2.6
6,"COC(=O)N1CC2CCCN(Cc3ccnc(-c4ccc5c(c4)CN(C4CCC(=O)NC4=O)C5=O)c3F)C2C1 (stereo not drawn) [Example 275, methyl 1-((2-(2-(2,6-dioxopiperidin-3-yl)-1-oxoisoindolin-5-yl)-3-fluoropyridin-4-yl)methyl)octahydro-6H-pyrrolo[3,4-b]pyridine-6-carboxylate]",≥ 10000
7,"CC(C)(O)C1CN(Cc2ccnc(-c3ccc4c(c3F)CN(C3CCC(=O)NC3=O)C4=O)c2F)C1 (stereo not drawn) [Example 281, 3-(4-fluoro-5-(3-fluoro-4-((3-(2-hydroxypropan-2-yl)azetidin-1-yl)methyl)pyridin-2-yl)-1-oxoisoindolin-2-yl)piperidine-2,6-dione]",22.1
8,"C[C@@H]1c2c(ccc(-c3cc(CN4CCC(O)(c5ccccc5)C4)ccn3)c2F)C(=O)N1[C@H]1CCC(=O)NC1=O (stereo partly drawn) [Example 139, (3S)-3-((3R)-4-fluoro-5-(4-((3-hydroxy-3-phenylpyrrolidin-1-yl)methyl)pyridin-2-yl)-3-methyl-1-oxoisoindolin-2-yl)piperidine-2,6-dione]",367
9,"O=C1CCC(N2Cc3cc(-c4cc(CN5CCC5COc5ccc(F)cc5)ccn4)ccc3C2=O)C(=O)N1 (stereo not drawn) [Example 192, 3-(5-(4-((2-((4-fluorophenoxy)methyl)azetidin-1-yl)methyl)pyridin-2-yl)-1-oxoisoindolin-2-yl) piperidine-2,6-dione]",7.7
10,"CC1(C)C2CN(Cc3ccnc(-c4ccc5c(c4)CN(C4CCC(=O)NC4=O)C5=O)c3F)CC21 (stereo not drawn) [Example 206, 3-(5-(4-((6,6-dimethyl-3-azabicyclo[3.1.0]hexan-3-yl)methyl)-3-fluoropyridin-2-yl)-1-oxoisoindolin-2-yl)piperidine-2,6-dione]",11.1
11,"O=C1CCC(N2Cc3cc(-c4nccc(CN5Cc6ccc(Cl)cc6C5)c4F)ccc3C2=O)C(=O)N1 (stereo not drawn) [Example 187, 3-(5-(4-((5-chloroisoindolin-2-yl)methyl)-3-fluoropyridin-2-yl)-1-oxoisoindolin-2-yl)piperidine-2,6-dione]",≥ 10000
12,"CC(C)(O)[C@@H]1CCN(Cc2ccnc(-c3ccc4c(c3F)CN(C3CCC(=O)NC3=O)C4=O)c2F)C1 (stereo partly drawn) [Example 278, 3-(4-fluoro-5-(3-fluoro-4-(((R)-3-(2-hydroxypropan-2-yl)pyrrolidin-1-yl)methyl)pyridin-2-yl)-1-oxoisoindolin-2-yl)piperidine-2,6-dione]",31.8
13,"CC(O)C1CCN(Cc2ccnc(-c3ccc4c(c3)CN(C3CCC(=O)NC3=O)C4=O)c2)C1 (stereo not drawn) [Example 107, 3-(5-(4-((3-(1-hydroxyethyl)pyrrolidin-1-yl)methyl)pyridin-2-yl)-1-oxoisoindolin-2-yl)piperidine-2,6-dione]",5.8
14,"C[C@@H]1c2c(ccc(-c3cc(CN4CCC(C)(O)C4)ccn3)c2F)C(=O)N1[C@H]1CCC(=O)NC1=O (stereo partly drawn) [Example 140, (3S)-3-((3R)-4-fluoro-5-(4-((3-hydroxy-3-methylpyrrolidin-1-yl)methyl)pyridin-2-yl)-3-methyl-1-oxoisoindolin-2-yl)piperidine-2,6-dione]",79.1
15,"CC1CC(O)CCN1Cc1ccnc(-c2ccc3c(c2)CN(C2CCC(=O)NC2=O)C3=O)c1F (single isomer, unassigned) [Example 212, 3-(5-(3-fluoro-4-((4-hydroxy-2-methylpiperidin-1-yl)methyl)pyridin-2-yl)-1-oxoisoindolin-2-yl)piperidine-2,6-dione]",653
16,"COC(=O)N[C@H]1CN(Cc2ccnc(-c3ccc4c(c3)CN(C3CCC(=O)NC3=O)C4=O)c2F)C[C@@H]1O (stereo partly drawn) [Example 248, methyl ((3S,4S)-1-((2-(2-(2,6-dioxopiperidin-3-yl)-1-oxoisoindolin-5-yl)-3-fluoropyridin-4-yl)methyl)-4-hydroxypyrrolidin-3-yl)carbamate]",≥ 10000
17,"O=C1CCC(N2Cc3cc(-c4nccc(CN5CCC(OC(F)(F)F)C5)c4F)ccc3C2=O)C(=O)N1 (stereo not drawn) [Example 183, 3-(5-(3-fluoro-4-((3-(trifluoromethoxy)pyrrolidin-1-yl)methyl)pyridin-2-yl)-1-oxoisoindolin-2-yl)piperidine-2,6-dione]",≥ 10000
18,"CC1(O)CN(Cc2ccnc(-c3ccc4c(c3)CN(C3CCC(=O)NC3=O)C4=O)c2F)C1 (stereo not drawn) [Example 224, 3-(5-(3-fluoro-4-((3-hydroxy-3-methylazetidin-1-yl)methyl)pyridin-2-yl)-1-oxoisoindolin-2-yl)piperidine-2,6-dione]",72.9
19,"COc1c(CN2CCC(C3CC3)C2)ccnc1-c1ccc2c(c1)CN(C1CCC(=O)NC1=O)C2=O (stereo not drawn) [Example 173, 3-(5-(4-((3-cyclopropylpyrrolidin-1-yl)methyl)-3-methoxypyridin-2-yl)-1-oxoisoindolin-2-yl)piperidine-2,6-dione]",0.4
20,"CC(C)(C)OC(=O)N1CCC12CCCN(Cc1ccnc(-c3ccc4c(c3)CN(C3CCC(=O)NC3=O)C4=O)c1F)C2 (stereo not drawn) [Example 216, tert-butyl 6-((2-(2-(2,6-dioxopiperidin-3-yl)-1-oxoisoindolin-5-yl)-3-fluoropyridin-4-yl)methyl)-1,6-diazaspiro[3.5]nonane-1-carboxylate]",≥ 10000
21,"COC(=O)N1CC2(CCN(Cc3ccnc(-c4ccc5c(c4)CN(C4CCC(=O)NC4=O)C5=O)c3F)CC2)C1 (stereo not drawn) [Example 252, methyl 7-((2-(2-(2,6-dioxopiperidin-3-yl)-1-oxoisoindolin-5-yl)-3-fluoropyridin-4-yl)methyl)-2,7-diazaspiro[3.5]nonane-2-carboxylate]",≥ 10000
22,"C[C@@H]1CN(Cc2ccnc(-c3ccc4c(c3)CN(C3CCC(=O)NC3=O)C4=O)c2F)C[C@H]1O (stereo partly drawn) [Example 232, 3-(5-(3-fluoro-4-(((3S,4R)-3-hydroxy-4-methylpyrrolidin-1-yl)methyl)pyridin-2-yl)-1-oxoisoindolin-2-yl)piperidine-2,6-dione]",38.6
23,"CC(C)(O)[C@H]1CCN(Cc2ccnc(-c3ccc4c(c3)CN(C3CCC(=O)NC3=O)C4=O)c2)C1 (stereo partly drawn) [Example 104, 3-(5-(4-(((S)-3-(2-hydroxypropan-2-yl)pyrrolidin-1-yl)methyl)pyridin-2-yl)-1-oxoisoindolin-2-yl)piperidine-2,6-dione]",4.2
24,"O=C1CCC(N2Cc3cc(-c4cc(CN5CCC6(CC5)COC6)ccn4)ccc3C2=O)C(=O)N1 (stereo not drawn) [Example 100, 3-(5-(4-((2-oxa-7-azaspiro[3.5]nonan-7-yl)methyl)pyridin-2-yl)-1-oxoisoindolin-2-yl)piperidine-2,6-dione]",3.2
25,"O=C1CCC(N2Cc3cc(-c4nccc(CN5CC[C@@H](F)C5)c4F)ccc3C2=O)C(=O)N1 (stereo partly drawn) [Example 258, 3-(5-(3-fluoro-4-(((R)-3-fluoropyrrolidin-1-yl)methyl)pyridin-2-yl)-1-oxoisoindolin-2-yl)piperidine-2,6-dione]",≥ 10000
26,"O=C1CCC(N2Cc3cc(-c4cc(CN5CC6(CCCCC6)C5)ccn4)ccc3C2=O)C(=O)N1 (stereo not drawn) [Example 157, 3-(5-(4-((2-azaspiro[3.5]nonan-2-yl)methyl)pyridin-2-yl)-1-oxoisoindolin-2-yl) piperidine-2,6-dione]",2.5
27,"C[C@H]1[C@H](O)CN1Cc1ccnc(-c2ccc3c(c2)CN(C2CCC(=O)NC2=O)C3=O)c1F (stereo partly drawn) [Example 90, 3-(5-(3-fluoro-4-(((2S,3R)-3-hydroxy-2-methylazetidin-1-yl)methyl)pyridin-2-yl)-1-oxoisoindolin-2-yl)piperidine-2,6-dione]",454
28,"CC(C)(C)OC(=O)[C@@H]1C[C@@H](OC(C)(C)C)CN1Cc1ccnc(-c2ccc3c(c2)CN(C2CCC(=O)NC2=O)C3=O)c1F (single isomer, unassigned) [Example 214]",3.5
29,"O=C1CCC(N2Cc3c(ccc(-c4nccc(CN5CCn6c(nnc6C(F)(F)F)C5)c4F)c3F)C2=O)C(=O)N1 (stereo not drawn) [Example 282, 3-(4-fluoro-5-(3-fluoro-4-((3-(trifluoromethyl)-5,6-dihydro-[1,2,4]triazolo[4,3-a]pyrazin-7(8H)-yl)methyl)pyridin-2-yl)-1-oxoisoindolin-2-yl)piperidine-2,6-dione]",≥ 10000
30,"O=C1CCC(N2Cc3cc(-c4nccc(CN5CC[C@H](F)C5)c4F)ccc3C2=O)C(=O)N1 (stereo partly drawn) [Example 184, 3-(5-(3-fluoro-4-(((S)-3-fluoropyrrolidin-1-yl)methyl)pyridin-2-yl)-1-oxoisoindolin-2-yl)piperidine-2,6-dione]",3160
